Peptide text beside a SMILES is read from it.
Tests used:
bovine albumin = bovine albumin (Bos taurus, UniProt P02769); assay: Affinity test on albumin-Sepharose column; assay type: binding; conditions: ammonium hydrogen carbonate pH 7.4, 2 h, 25 °C, elution 0.1% TFA, ESI-IT-TOF MS of fractions
Procedure: Immobilization of protein in a microcolumn, and affinity tests, were performed as described previously by Spodzieja et al.. The IM peptide was added onto an albumin-Sepharose column equilibrated in ammonium hydrogen carbonate, pH 7.4, and incubated for 2 h at 25 °C with gentle shaking. After 2 h, the column was washed with 100 mL of ammonium hydrogen carbonate, collecting the first and last milliliter of the solution (supernatant and last wash fraction). The albumin-peptide complex was dissociated by incubation for 15 min in 0.1% TFA, with gentle shaking. The procedure was repeated twice, and the elution fraction was collected each time. All fractions were lyophilized and analyzed by mass spectrometry (ESI-IT-TOF, Kyoto, Shimadzu Japan).

46BR.1N fibroblasts = assay: LDH cytotoxicity assay; assay type: cell-based, human; conditions: 50–150 µg/mL, 48 h, serum-free medium; n=16 (Figure S5)
Procedure: (§1) Cell death was quantified by measurement of lactate dehydrogenase activity in cell culture supernatants (Takara, Japan, cat. No. MK401), following the manufacturer’s instructions. Cells were seeded into 96-well plates (BD, cat.no. 353872), at a density of 5000 cells per well, in medium (DMEM) supplemented with 10% FBS. After 24 h, the medium was changed to serum-free medium containing appropriate concentrations of IM peptide. After 48 h of stimulation supernatants were collected for LDH analysis. Cell death was normalized with respect to untreated control (without IM). Non-IM treated cells were used as negative control (0%) and Triton-X 100 (1%) was used as the positive control for maximum LDH release (maximum cytotoxicity, 100%). The assay was performed to IM in concentrations of 50–150 µg/mL.

[1] = system: adipose-derived stem cells (ASCs); assay: LDH cytotoxicity assay; assay type: cell-based, human; conditions: 50–150 µg/mL, 48 h, serum-free medium; n=12 (Figure S5)
Procedure: as §1

HaCaT keratinocytes = assay: LDH cytotoxicity assay; assay type: cell-based, human; conditions: 50–150 µg/mL, 48 h, serum-free medium; n=16 (Figure S5)
Procedure: as §1

ASCs from donor 6 = assay: RNA sequencing with ingenuity pathway analysis (IPA); assay type: cell-based, human; conditions: ASCs donor 6, 0.1 µg/mL IM
Procedure: Cell stimulation was performed as previously described. Primary fibroblasts after the third passage and ASCs after the second passage were cultured in appropriate DMEM medium supplemented with 10% FBS for 24 h. Then, the medium was changed for DMEM with 5% FBS and 24-h incubation was performed. After another medium change for serum-free, cells were stimulated with IM peptide (0.1 µg/mL) for 48 h. Cell cultures deprived of FBS for 48 h were used as a control. After stimulation, the cells were trypsinized, collected, and centrifuged, and the pellet was kept frozen (−80 °C) for transcriptome analysis and transcript level analysis.
For three plastic surgery donors (donor 6, donor 11, and donor 12) ASCs (3–4.5 × 10^5 cells) after passage P2, namely cultures stimulated for 48 h with 0.1 µg/mL IM, or control cultured with FBS-deprived medium, were trypsinized, washed, and snap frozen for transcriptome analysis (see Supplementary Table S5 for clinical information). The pellets were stored at −80 °C prior to RNA isolation. RNA was isolated using a miRNeasy Mini Kit (Qiagen, Hilden, Germany) with two modifications of the original protocol: (i) chloroform was substituted with 1-bromo-3-chloropropane to prevent foaming and emulsification, and (ii) the elution was done with 40 µl of water followed by another elution with the entire volume of the original eluate. The quality and concentration of RNA was assessed using a Bioanalyzer 2100 Instrument and RNA 6000 Nano Kit (Agilent, Waldbronn, Germany). The average RNA yield was 2 µg. Samples with RIN (RNA Integrity Number) >8.0 were used for further transcriptome analysis.
A ribosome reduction kit (Arraystar Inc, Rockville, MD, USA) and SureSelect Strand Specific mRNA library kit (Agilent, Santa Clara, CA, USA) were used for next generation sequencing (NGS) library preparation according to standard procedures. The cDNA libraries were quantitated using qPCR in a Roche LightCycler 480 with the Kapa Library Quantification Kit for Illumina platforms (Kapa Biosystems, Woburn, MA, USA). Onboard cluster generation and 50 nt paired end RNA sequencing were performed on an Illumina HiSeq2500 device using Rapid Run v2 sequencing chemistry and flow cells as recommended by the manufacturer (Illumina Inc., San Diego, CA, USA). Paired end 50 bp sequencing runs were completed and the data was converted to the FASTQ Sanger format. Trim Galore was used to remove residual adapter sequences from the reads (https://www.bioinformatics.babraham.ac.uk). Sequencing reads were aligned to the human reference genome assembly (hg19) using TopHat. Further analysis was performed according to workflow for Cufflinks version 2.2.0 and higher. Transcript assembly and estimation of the relative abundances were carried out with Cufflinks using the following settings: Quartile normalization method for the libraries, blind dispersion method for replicates, and biased correction using canonical hg19 as reference. Cuffmerge and Cuffquant were then performed, followed by final comparison analysis in Cuffdiff. […] Differentially expressed genes (DGE) were grouped in functional pathways using ingenuity pathway analysis (IPA Spring Release 2017, QIAGEN, Hilde, Germany) on a gene level, using RefSeq annotation.

[2] = 48 h vs FBS-deprived medium, IPA disease and function mode

bovine albumin, sequence (P02769 25-607): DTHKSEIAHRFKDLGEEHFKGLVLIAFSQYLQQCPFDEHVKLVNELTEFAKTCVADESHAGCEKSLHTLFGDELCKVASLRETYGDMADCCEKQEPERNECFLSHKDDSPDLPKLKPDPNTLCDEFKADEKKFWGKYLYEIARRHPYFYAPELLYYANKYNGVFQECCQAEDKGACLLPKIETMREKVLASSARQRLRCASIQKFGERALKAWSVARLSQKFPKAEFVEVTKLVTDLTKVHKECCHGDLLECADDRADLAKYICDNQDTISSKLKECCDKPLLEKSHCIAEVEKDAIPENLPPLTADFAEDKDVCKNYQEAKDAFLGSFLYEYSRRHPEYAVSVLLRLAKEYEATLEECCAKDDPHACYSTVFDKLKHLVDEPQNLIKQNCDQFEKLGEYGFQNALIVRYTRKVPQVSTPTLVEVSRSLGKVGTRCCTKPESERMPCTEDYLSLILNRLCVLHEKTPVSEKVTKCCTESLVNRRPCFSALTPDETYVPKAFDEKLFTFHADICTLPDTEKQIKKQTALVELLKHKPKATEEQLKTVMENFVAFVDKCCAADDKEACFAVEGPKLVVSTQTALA

CC(C)[C@H](NC(=O)[C@H](CCCCN)NC(=O)[C@H](CC(=O)O)NC(=O)[C@@H](N)CCCNC(=N)N)C(=O)N[C@@H](Cc1ccc(O)cc1)C(=O)N[C@@H](CCCNC(=N)N)C(=O)O [IM, H-Arg-Asp-Lys-Val-Tyr-Arg-OH] (H-RDKVYR-OH)
interaction with albumin (bovine albumin): interacted with bovine albumin | cytotoxicity (LDH release) (46BR.1N fibroblasts): not cytotoxic | cytotoxicity (LDH release) [1]: not cytotoxic | cytotoxicity (LDH release) (HaCaT keratinocytes): not cytotoxic | consistency score of the IPA regulatory network (ASCs from donor 6; 48 h, highest consistency score (Figure S10A)): 29.69 | Predicted Direction of Change: Activation of cells (ASCs from donor 6; [2]): Activation | Predicted Direction of Change: Binding of neutrophils (ASCs from donor 6; [2]): Activation | Predicted Direction of Change: Cell migration of granulocytes (ASCs from donor 6; [2]): Activation | Predicted Direction of Change: Cell migration of neutrophils (ASCs from donor 6; [2]): Activation | Predicted Direction of Change: Cell movements (ASCs from donor 6; [2]): Activation | Predicted Direction of Change: Chemotaxis (ASCs from donor 6; [2]): Activation | Predicted Direction of Change: Immune response (ASCs from donor 6; [2]): Activation | Predicted Direction of Change: Migration of cells (ASCs from donor 6; [2]): Activation | Predicted Direction of Change: Migration of endothelium cells (ASCs from donor 6; [2]): Activation | Predicted Direction of Change: Permeability of endothelium cells (ASCs from donor 6; [2]): Activation | Predicted Direction of Change: RNA transactivation (ASCs from donor 6; [2]): Activation | Predicted Direction of Change: Secretion of lipids (ASCs from donor 6; [2]): Activation | Predicted Direction of Change: Synthesis of fatty acids (ASCs from donor 6; [2]): Activation | Predicted Direction of Change: Synthesis of nitric oxide (ASCs from donor 6; [2]): Activation

Reference: PMC7355430, “Imunofan—RDKVYR Peptide—Stimulates Skin Cell Proliferation and Promotes Tissue Repair” (Molecules, 2020)
